Test results as given in patent publication US8883779B2, “Oxazine derivatives and a pharmaceutical composition for inhibiting BACE1 containing them” (Shinogi & Co., Ltd., priority 2011, dated 2014).

Key:
[1] = molecular target: T1, CYP3A4 enzyme (enzyme expressed in Escherichia coli) (Homo sapiens, UniProt P08684); assay: CYP3A4 fluorescent MBI test; assay type: in vitro ADME; conditions: 7-BFC substrate, pre-reaction time 0 or 30 minutes
T1 construct: host or cells: Escherichia coli
Experimental: The CYP3A4 fluorescent MBI test is a test of investigating enhancement of CYP3A4 inhibition of a compound by a metabolism reaction. 7-benzyloxytrifluoromethylcoumarin (7-BFC) is debenzylated by the CYP3A4 enzyme (enzyme expressed in Escherichia coli) and 7-hydroxytrifluoromethylcoumarin (7-HFC) is produced as a fluorescing metabolite. The test is performed using 7-HFC production reaction as an index.
The reaction conditions are as follows: substrate, 5.6 μmol/L 7-BFC; pre-reaction time, 0 or 30 minutes; substrate reaction time, 15 minutes; reaction temperature, 25° C. […]
An enzyme in a K-Pi buffer (pH 7.4) and a compound of the present invention solution as a pre-reaction solution were added to a 96-well plate at the composition of the pre-reaction. […] Fluorescent values of 7-HFC as a metabolite were measured in each index reaction plate with a fluorescent plate reader. […]
The sample adding DMSO to a reaction system instead of compound of the present invention solution was adopted as a control (100%) because DMSO is used as a solvent to dissolve a compound of the present invention. Remaining activity (%) was calculated at each concentration of the compound of the present invention added as the solution, and IC50 was calculated by reverse-presumption by a logistic model using a concentration and an inhibition rate. […]

Recombinant human BACE1 = molecular target: T2, Recombinant human BACE1 (Homo sapiens, UniProt P56817); assay: Assay of BACE1 inhibiting activity; assay type: biochemical; conditions: Recombinant human BACE1 7.4 nmol/L, substrate peptide 18 nmol/L, pH 5.0, 30° C., 3.5 hours; read-out: 50% inhibitory concentration against the enzymatic activity (IC50)
T2 construct: purchased R&D Systems
T2 sequence (P56817 46-501): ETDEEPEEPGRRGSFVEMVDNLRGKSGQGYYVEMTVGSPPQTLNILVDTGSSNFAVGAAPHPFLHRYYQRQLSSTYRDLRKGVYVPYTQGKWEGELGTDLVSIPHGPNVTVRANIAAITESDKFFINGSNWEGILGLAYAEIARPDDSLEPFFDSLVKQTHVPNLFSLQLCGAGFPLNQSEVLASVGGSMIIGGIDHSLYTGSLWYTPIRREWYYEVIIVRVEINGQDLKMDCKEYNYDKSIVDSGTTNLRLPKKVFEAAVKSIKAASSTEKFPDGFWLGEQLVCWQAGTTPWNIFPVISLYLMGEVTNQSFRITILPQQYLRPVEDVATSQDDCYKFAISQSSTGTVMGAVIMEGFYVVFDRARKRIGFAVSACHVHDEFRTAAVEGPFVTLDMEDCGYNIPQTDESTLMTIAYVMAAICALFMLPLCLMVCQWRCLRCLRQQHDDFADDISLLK
Experimental: 48.5 μL of substrate peptide solution (Biotin-XSEVNLDAEFRHDSGC-Eu: X=ε-amino-n-capronic acid, Eu=Europium cryptate) was added to each well of 96-hole half-area plate (a black plate: Costar), and after addition of 0.5 μl of the compound of the present invention (DMSO solution) and 1 μl of Recombinant human BACE1(R&D Systems), the reaction mixture was incubated at 30° C. for 3.5 hours. The substrate peptide was synthesized by reacting Cryptate TBPCOOH mono SMP (CIS bio international) with Biotin-XSEVNLDAEFRHDSGC (Peptide Institute, Inc.). The final concentrations of the substrate peptide and Recombinant human BACE1 were adjusted to 18 nmol/L and 7.4 nmol/L, respectively, and the reaction was performed in sodium acetate buffer (50 mmol/L sodium acetate, pH 5.0, 0.008% Triton X-100).
After the incubation for reaction, 50 μl of 8.0 μg/ml Streptavidin-XL665 (CIS bio international) dissolved in phosphate buffer (150 mmol/L K2 HPO4—KH2 PO4, pH 7.0, 0.008% Triton X-100, 0.8 mol/L KF) was added to each well and left stand at 30° C. for 45 minutes. After then, fluorescence intensity was measured (excitation wavelength: 320 nm, measuring wavelength: 620 nm and 665 nm) using Wallac 1420 multilabel counter (Perkin Elmer life sciences).

[2] = Solubility test (turbidity, JP-I / JP-II medium); assay type: physicochemical; conditions: pH 6.8, aqueous buffer, kinetic from dmso stock, 2% DMSO solution, turbidity after 4 hours, read-out: solubility assessed by 3 stages
[3] = Metabolism stability test; assay type: in vitro ADME; conditions: human liver microsomes 0.5 mg protein/mL, 1 mmol/L NADPH, 37° C., 30 minutes
Experimental: Using a commercially available pooled human liver microsomes, a compound of the present invention is reacted for a constant time, a remaining rate is calculated by comparing a reacted sample and an unreacted sample, thereby, a degree of metabolism in liver was assessed.
A reaction was performed (oxidative reaction) at 37° C. for 0 minute or 30 minutes in the presence of 1 mmol/L NADPH in 0.2 mL of a buffer (50 mmol/L Tris-HCl pH 7.4, 150 mmol/L potassium chloride, 10 mmol/L magnesium chloride) containing 0.5 mg protein/mL of human liver microsomes. After the reaction, 50 μL of the reaction solution was added to 100 μL of a methanol/acetonitrile=1/1 (v/v), mixed and centrifuged at 3000 rpm for 15 minutes. The compound of the present invention in the supernatant was quantified by LC/MS/MS, and a remaining amount of the compound of the present invention after the reaction was calculated, letting a compound amount at 0 minute reaction time to be 100%.

CYP1A2 = molecular target: T3, CYP1A2 (Homo sapiens, UniProt P05177); assay: CYP inhibition test, 7-ethoxyresorufin O-deethylation; assay type: in vitro ADME; conditions: pooled human liver microsomes, 0.5 μmol/L ethoxyresorufin
T3 construct: The commercially available pooled human liver microsomes were used; from tissue; host or cells: pooled human liver microsomes
T3 sequence (P05177 1-516): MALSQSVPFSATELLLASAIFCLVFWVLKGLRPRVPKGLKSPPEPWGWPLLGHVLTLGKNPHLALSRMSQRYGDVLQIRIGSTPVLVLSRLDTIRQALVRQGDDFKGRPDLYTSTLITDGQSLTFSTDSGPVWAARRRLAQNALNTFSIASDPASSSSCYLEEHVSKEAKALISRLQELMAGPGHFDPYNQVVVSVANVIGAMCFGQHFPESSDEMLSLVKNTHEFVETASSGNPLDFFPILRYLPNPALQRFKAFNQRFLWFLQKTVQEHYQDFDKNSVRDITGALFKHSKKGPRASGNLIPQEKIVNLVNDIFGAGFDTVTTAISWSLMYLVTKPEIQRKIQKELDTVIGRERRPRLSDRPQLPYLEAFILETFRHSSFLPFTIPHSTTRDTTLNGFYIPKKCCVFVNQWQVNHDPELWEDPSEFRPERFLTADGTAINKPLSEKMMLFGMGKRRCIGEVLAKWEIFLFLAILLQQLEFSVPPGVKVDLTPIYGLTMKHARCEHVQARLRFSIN
Text: (§1) The test is to assess the inhibitory effect of a compound of the present invention towards typical substrate metabolism reactions on CYP enzymes in human liver microsomes. The commercially available pooled human liver microsomes were used.
(§2) The marker reactions on human main five CYP enzymes (CYP1A2, 2C9, 2C19, 2D6, and 3A4) were used as follows; 7-ethoxyresorufin O-deethylation (CYP1A2), tolbutamide methyl-hydroxylation (CYP2C9), mephenyloin 4′-hydroxylation (CYP2C19), dextromethorphan O-demethylation (CYP2D6), and terfenadine hydroxylation (CYP3A4 […]
(§3) Five kinds of substrates, human liver microsomes, or a compound of the present invention in 50 mmol/L Hepes buffer was added to a 96-well plate at the composition as described above as a reaction solution. […] After the centrifugation at 3000 rpm for 15 minutes, resorufin (CYP1A2 metabolite) in the supernatant was quantified by a fluorescent plate reader, and hydroxytolbutamide (CYP2C9 metabolite), 4′-hydroxymephenyloin (CYP2C19 metabolite), dextrorphan (CYP2D6 metabolite), and terfenadine alcohol metabolite (CYP3A4 metabolite) in the supernatant were quantified by LC/MS/MS. […]

CYP2C9 = molecular target: T4, CYP2C9 (Homo sapiens, UniProt P11712); assay: CYP inhibition test, tolbutamide methyl-hydroxylation; assay type: in vitro ADME; conditions: pooled human liver microsomes, 100 μmol/L tolbutamide
T4 construct: The commercially available pooled human liver microsomes were used; from tissue; host or cells: pooled human liver microsomes
T4 sequence (P11712 whole entry): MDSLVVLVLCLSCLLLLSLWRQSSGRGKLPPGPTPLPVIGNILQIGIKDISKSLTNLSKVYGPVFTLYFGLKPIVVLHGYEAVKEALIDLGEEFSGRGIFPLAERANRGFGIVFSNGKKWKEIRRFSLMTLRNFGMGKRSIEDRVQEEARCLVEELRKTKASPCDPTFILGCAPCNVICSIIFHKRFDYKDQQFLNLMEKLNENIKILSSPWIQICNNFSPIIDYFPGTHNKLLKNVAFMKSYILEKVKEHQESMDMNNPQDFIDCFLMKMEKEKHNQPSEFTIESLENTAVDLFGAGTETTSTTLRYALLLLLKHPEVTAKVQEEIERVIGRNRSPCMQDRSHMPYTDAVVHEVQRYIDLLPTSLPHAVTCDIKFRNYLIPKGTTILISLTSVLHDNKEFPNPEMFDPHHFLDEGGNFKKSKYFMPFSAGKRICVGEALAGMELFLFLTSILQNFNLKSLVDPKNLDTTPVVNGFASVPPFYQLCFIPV
Text: as §1, §2, §3

CYP2C19 = molecular target: T5, CYP2C19 (Homo sapiens, UniProt P33261); assay: CYP inhibition test, mephenyloin 4'-hydroxylation; assay type: in vitro ADME; conditions: pooled human liver microsomes, 50 μmol/L S-mephenyloin
T5 construct: The commercially available pooled human liver microsomes were used; from tissue; host or cells: pooled human liver microsomes
T5 sequence (P33261 whole entry): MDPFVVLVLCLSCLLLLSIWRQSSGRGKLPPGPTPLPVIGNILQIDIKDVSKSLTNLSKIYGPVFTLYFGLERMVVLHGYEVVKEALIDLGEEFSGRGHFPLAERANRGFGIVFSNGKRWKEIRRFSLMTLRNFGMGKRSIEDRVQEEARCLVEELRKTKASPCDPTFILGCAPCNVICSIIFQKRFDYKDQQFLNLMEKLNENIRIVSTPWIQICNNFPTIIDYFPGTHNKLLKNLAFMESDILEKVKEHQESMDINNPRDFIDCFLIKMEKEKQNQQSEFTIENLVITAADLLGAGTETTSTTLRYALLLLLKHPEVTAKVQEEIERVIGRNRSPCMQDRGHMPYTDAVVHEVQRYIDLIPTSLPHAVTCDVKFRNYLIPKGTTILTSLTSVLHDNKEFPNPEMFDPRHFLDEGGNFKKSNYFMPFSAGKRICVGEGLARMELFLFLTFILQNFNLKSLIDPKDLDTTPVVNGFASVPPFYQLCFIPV
Text: as §1, §2, §3

CYP2D6 = molecular target: T6, CYP2D6 (Homo sapiens, UniProt P10635); assay: CYP inhibition test, dextromethorphan O-demethylation; assay type: in vitro ADME; conditions: pooled human liver microsomes, 5 μmol/L dextromethorphan
T6 construct: The commercially available pooled human liver microsomes were used; from tissue; host or cells: pooled human liver microsomes
T6 sequence (P10635 whole entry): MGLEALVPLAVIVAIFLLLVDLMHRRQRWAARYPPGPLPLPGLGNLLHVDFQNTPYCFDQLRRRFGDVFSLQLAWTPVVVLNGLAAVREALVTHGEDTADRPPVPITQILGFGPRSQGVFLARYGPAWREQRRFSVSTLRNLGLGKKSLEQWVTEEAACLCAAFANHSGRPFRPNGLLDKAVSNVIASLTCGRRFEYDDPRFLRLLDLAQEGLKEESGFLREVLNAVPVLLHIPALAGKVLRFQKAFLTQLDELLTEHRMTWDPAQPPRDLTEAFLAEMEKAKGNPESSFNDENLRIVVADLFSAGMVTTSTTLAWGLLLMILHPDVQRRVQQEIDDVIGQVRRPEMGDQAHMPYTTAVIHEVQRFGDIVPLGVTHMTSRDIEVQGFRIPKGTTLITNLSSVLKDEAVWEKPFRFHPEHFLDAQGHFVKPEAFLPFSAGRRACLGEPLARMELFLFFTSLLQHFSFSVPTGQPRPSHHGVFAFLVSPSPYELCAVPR
Text: as §1, §2, §3

CYP3A4 = molecular target: T7, CYP3A4 (Homo sapiens, UniProt P08684); assay: CYP inhibition test, terfenadine hydroxylation; assay type: in vitro ADME; conditions: pooled human liver microsomes, 1 μmol/L terfenadine
T7 construct: The commercially available pooled human liver microsomes were used; from tissue; host or cells: pooled human liver microsomes
T7 sequence (P08684 whole entry): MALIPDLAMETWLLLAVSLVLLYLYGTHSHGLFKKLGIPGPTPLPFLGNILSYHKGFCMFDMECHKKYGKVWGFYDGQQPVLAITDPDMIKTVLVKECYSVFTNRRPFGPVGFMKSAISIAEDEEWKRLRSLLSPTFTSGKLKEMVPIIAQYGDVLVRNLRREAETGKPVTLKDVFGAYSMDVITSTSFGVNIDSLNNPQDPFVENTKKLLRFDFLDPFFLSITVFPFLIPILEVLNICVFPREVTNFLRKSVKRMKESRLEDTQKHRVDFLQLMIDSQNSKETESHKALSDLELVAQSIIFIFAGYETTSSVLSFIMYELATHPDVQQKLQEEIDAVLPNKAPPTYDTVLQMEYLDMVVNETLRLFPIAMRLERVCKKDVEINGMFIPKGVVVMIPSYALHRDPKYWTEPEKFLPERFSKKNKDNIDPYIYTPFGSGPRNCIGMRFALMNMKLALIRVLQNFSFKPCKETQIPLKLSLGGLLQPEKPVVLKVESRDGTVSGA
Text: as §1, §2, §3

T1 sequence (P08684 whole entry): as above

With `CC1=C[C@@](C)(c2cc(NC(=O)c3cnc(OCF)cn3)ccc2F)N=C(N)O1` [Compound I-1] the “CYP3A4 MBI: difference of IC50 without and with preincubation” value [1] was “(−) (the difference is 3 μM or less)”.
Work on `C[C@@]1(c2cc(NC(=O)c3ccc(C#N)cn3)ccc2F)C=C(C(F)F)OC(N)=N1` [Compound I-2] yielded an IC50 (Recombinant human BACE1) of 0.0053 µM.
Work on `CC1=C[C@@](C)(c2cc(NC(=O)c3ccc(C(F)F)cn3)ccc2F)N=C(N)O1` [Compound I-5] yielded a solubility at 4 h [2] of over 40 µM.
With `C[C@@]1(c2cc(NC(=O)c3ccc(C#N)cn3)ccc2F)C=C(CO)OC(N)=N1` [Compound I-4] the IC50 (Recombinant human BACE1) was 0.0106 µM.
For `C[C@@]1(c2cc(NC(=O)c3cnc(OC(F)F)cn3)ccc2F)C=COC(N)=N1` [Compound I-8], the IC50 (Recombinant human BACE1) was 0.0103 µM and the “remaining amount of the compound after the reaction” value [3] was 99%.
Compound `C[C@@]1(c2cc(NC(=O)c3ncc(C#N)cc3F)ccc2F)C=COC(N)=N1` [Compound I-9] has an IC50 (CYP1A2) of over 20 µM, an IC50 (CYP2C9) of over 20 µM and an IC50 (CYP2C19) of over 20 µM. The IC50 (CYP2D6) was over 20 µM and the IC50 (CYP3A4) was over 20 µM.
In the case of `CC1=C[C@@](C)(c2cc(NC(=O)c3ccc(C#N)cn3)ccc2Cl)N=C(N)O1` [Compound I-11], the IC50 (Recombinant human BACE1) is reported as 0.064 µM.
